Reference: patent publication US20090253629A1 (priority 2008, published 2009)
Values after ≈ are worked out from the molar mass of the structure shown. Values joined by “and” are separate entries in the source; they are usually repeats but may differ in a detail not shown here. Equal values may be shown once. Read-outs that look alike come from different tables or passages of the source.

Experiments:
[1] = system: penicillin-resistant serotype 9V Streptococcus pneumoniae (1395); format: in vivo, New Zealand white rabbits; settings: for reduction in bacterial burden in the cerebrospinal fluid (Δ log CFU), Average / reduction in bacterial burden in the cerebrospinal fluid (Δ log CFU): Ceftriaxon treatment; for reduction in bacterial burden in the cerebrospinal fluid (Δ log CFU), Average: average of rabbits 7-10; for reduction in bacterial burden in the cerebrospinal fluid (Δ log CFU): individual rabbits 7-10
Text: (§1) An Isolate of a penicillin-resistant serotype 9V Streptococcus pneumoniae (1395), originally isolated from the CSF of a person with meningitis, was used in the meningitis model. This strain was formerly used for evaluating the effectiveness of treatment of meningitis with Moxifloxacin (see Ostergaard et al., 1998, “Evaluation of moxifloxacin, a new 8-methoxyquinolone, for treatment of meningitis caused by a penicillin-resistant pneumococcus in rabbits”, Antimicrob Agents Chemother 42(7): 1706-1712).
The virulence of the strain was enhanced by passing the bacteria through a mouse peritonitis model. Bacteria from sampled peritoneal fluid were grown on blood agar plates, recovered and diluted in beef-broth with 10% glycerol added and frozen at −80° C.
The bacterial aliquots were thawn and grown on blood-agar plates, suspended in sterile beef-broth to reach an optical density of 3.5 at 540 nm, and subsequently diluted to obtain a final concentration of 1-2×10^6 CFU/ml.
Male New Zealand white rabbits weighing approx. 2500 g was used for the experiments. The rabbits arrived at the facilities 1-2 weeks prior to the experiment to allow for adaptation. They were kept in single cages covered with hay and offered food and water with no restrictions. Veterinarian expertise was available at the laboratory, and the experimental design was approved by the local animal legislation committee.
The rabbit was weighed and anaesthetized with dormicum 0.5 ml/kg (midazolam 5 mg/ml) s.c. and after 10 minutes with hypnorm 0.35 ml/kg (fentanylcitrat+fluanison) i.m.
The ears, scalp and neck of the rabbit were shaved and the skin disinfected. An incision measuring approx. 2 cm was made on the forehead of the rabbit and the scalp was exposed by blunt dissection. 4 bore holes were made demarcating a square and 4 screws were screwed up at right angles to the surface (2.5 to 3 turns). An acrylic helmet, embedding a turnbuckle, was moulded from dental casting material directly onto the scalp of the rabbit and the helmet was cooled under running water. The rabbit was put back into its cage with free access to food and water to rest for 8-10 hours until the time of bacterial inoculation or start of pharmacokinetic treatment study on uninfected rabbits. Analgesia with buprenorfin, 0.1 mg/kg, was given.
The head of the rabbit was immobilised in a stereotactic frame and a spinal canula was introduced in cisterna magna for the inoculation of 1×10^5 CFU pneumococci. After the bacterial inoculation, the rabbit was put back into its cage with access to food and water for another 8 hours.
The rabbit was re-anaesthetized with urethan 3.5 ml/kg ([…] 50%, 1.75 g/kg) s.c. at 7.30 a.m. A venous catheter was applied in the left ear-vein and Mebumal approx. 0.5-1 ml (Pentobarbital 50 mg/ml) i.v. was infused slowly until the rabbit was asleep and deeply anaesthetized. A three-way tap was connected to the venous catheter and syringes containing pentobarbital for supplemental anaesthetics and isotonic NaCl and heparin 1 Ul/ml for flushing were connected to the tap. Rabbits were observed every half hour. When the need for supplemental anaesthesia arose, additional 0.2 ml Mebumal (Pentobarbital 50 mg/ml) was given. During the experiment observations and anaesthetics were recorded in the scheme of the laboratory animal-department and in the book of the Laboratory Animal Inspection.
An arterial canula was applied in the artery of the right ear and used for blood-sampling throughout the experiment. A bolt was fastened to the turnbuckle embedded in the acrylic helmet, and the rabbit's head was fixed in a stereotactic frame. The rabbit remained fixed throughout the experiment.
Cisterna magna was punctured with a spinal-canula, fastened to the stereotactic frame. The canula was left in place throughout the experiment and used for CSF-sampling.

[2] = system: Streptococcus pneumoniae (1395); experiment: Minimum inhibitory concentration (MIC) against Streptococcus pneumoniae (1395); format: cell-based; settings: penicillin-resistant serotype 9V, read-out: minimium inhibitory concentration (MIC)
Text: as §1
The synthetic defensin used in the experiment is a polypeptide having the amino acid sequence shown in SEQ ID NO: 1.

[3] = time 0 hours (normalized start)

Question: How did the “reduction in bacterial burden in the cerebrospinal fluid (Δ log CFU), Average” value (shortened to “reduction … (Δ log CFU), Average”) [1, 3] turn out when `CO/N=C(\C(=O)N[C@@H]1C(=O)N2C(C(=O)O)=C(CSc3nc(=O)c(=O)[nH]n3C)CS[C@H]12)c1csc(N)n1` [Ceftriaxone] was run?
Answer: 0.00 Δ log CFU

Question: And the “reduction in bacterial burden in the cerebrospinal fluid (Δ log CFU)” value [1, 3]?
Answer: 0.00 Δ log CFU

Question: What about the “bacterial burden in the cerebrospinal fluid” value ([1]; time 0 hours (start of treatment), Ceftriaxone 125 mg/kg at 0 h) of the same molecule?
Answer: 3,480,000 CFU/ml

Question: And the “reduction … (Δ log CFU), Average” value ([1]; time 3 hours)?
Answer: −2.12 Δ log CFU

Question: And the “reduction in bacterial burden in the cerebrospinal fluid (Δ log CFU)” value ([1]; time 3 hours)?
Answer: −2.26 Δ log CFU and −2.11 Δ log CFU and −2.53 Δ log CFU and −1.58 Δ log CFU

Question: What about the “bacterial burden in the cerebrospinal fluid” value ([1]; time 3 hours, Ceftriaxone 125 mg/kg at 0 h) of the same molecule?
Answer: 92,500 CFU/ml

Question: And the “reduction … (Δ log CFU), Average” value ([1]; time 5 hours)?
Answer: −2.98 Δ log CFU

Question: What about the “reduction in bacterial burden in the cerebrospinal fluid (Δ log CFU)” value ([1]; time 5 hours) of the same molecule?
Answer: −3.28 Δ log CFU and −2.77 Δ log CFU and −3.72 Δ log CFU and −2.14 Δ log CFU

Question: And the “bacterial burden in the cerebrospinal fluid” value ([1]; time 5 hours, Ceftriaxone 125 mg/kg at 0 h)?
Answer: 25,000 CFU/ml

Question: And the “reduction … (Δ log CFU), Average” value ([1]; time 10 hours)?
Answer: −4.18 Δ log CFU

Question: What about the “reduction in bacterial burden in the cerebrospinal fluid (Δ log CFU)” value ([1]; time 10 hours) of the same molecule?
Answer: −5.16 Δ log CFU and −3.57 Δ log CFU and −4.32 Δ log CFU and −3.67 Δ log CFU

Question: What about the “bacterial burden in the cerebrospinal fluid” value ([1]; time 10 hours, Ceftriaxone 125 mg/kg at 0 h) of the same molecule?
Answer: 750 CFU/ml

Question: And the “bacterial burden in the cerebrospinal fluid” value ([1]; time −10 hours (before treatment), Ceftriaxone group)?
Answer: 240,000 CFU/ml

Question: And the MIC [2]?
Answer: 0.5 µg/mL (≈ 0.902 µM)
